US12691084B2, “Pharmaceutical composition for preventing or treating bone diseases” (INDUSTRY FOUNDATION OF CHONNAM NATIONAL UNIVERSITY, priority 2019, dated 2026)
“Also recorded” adds a separate entry of the source.

What was measured:
[1] = PAMPA, parallel artificial membrane permeability assay; format: in vitro ADME; settings: for Papp: PAMPA, criterion >40, read-out: PAMPA (>40) Pe; for permeability resistance: conclusion from ADME evaluation
Experimental: (§1) In order to analyze the drug metabolism of PMSA compound, ADME evaluation was requested to the Daegu-Gyeongbuk Advanced Medical industry Promotion Foundation (DGMIF). Metabolic stability of drugs using liver microsomes (microsomal stability), drug metabolism inhibitory ability by five CYP450 enzymes, plasma metabolism (plasma stability), plasma protein binding, and intestinal permeability of drugs (PAMPA, parallel artificial membrane permeability assay) were analyzed. […] Further, it was confirmed that the permeability resistance was excellent (see Table 3 below). On the other hand, for one of PMSA derivatives, that is, 2-(N-(3,5-dimethylphenyl)methylsulfinamido)-N-(2 (phenylthio)phenyl)propanamide (#25-D5), intestinal permeability of the drug (PAMPA) was not measured.

[2] = test system: monocytes isolated from mouse bone marrow treated with RANKL; experiment: Osteoclast differentiation inhibition, TRAP staining and assay; format: cell-based; settings: for cells differentiated into osteoclasts (differentiation area ratio per total area): 10 μM, RANKL, Image J; for cells differentiated into osteoclasts (differentiation area ratio per total area) / osteoclast differentiation inhibitory ability: TRAP staining; for osteoclast differentiation inhibitory ability: area of differentiated osteoclasts
Experimental: Macrophages were isolated from bone marrow of 8-week old C57BL/6J mice, and seeded on a 96-well plate in an amount of 1×10^4 cells per well, followed by treating the cells with osteoclast differentiation factors M-CSF and RANKL at 30 ng/ml and 50 ng/ml, respectively. At the same time, the compounds were used for treatment, followed by culturing the cells for 3 to 4 days. Thereafter, differentiation influence was evaluated through TRAP staining and cell counting. Specific experimental procedures and results are as follows.
The bone marrow of a 10-week-old female mouse was isolated from the hip bone, femur and tibia, and incubated in α-MEM medium (Gibco, 12561-056, 10% fetal bovine serum, 1% penicillin/streptomycin) containing macrophage colony stimulating factor (M-CSF, PeproTech, 315-02, 30 ng/ml) for […] so as to isolate only monocytes. The isolated monocytes were treated with receptor activator of nuclear factor kappa B ligand (RANKL, PeproTech, 315-11, 50 ng/ml) to induce osteoclast differentiation. When a morphology of fused multinuclear cells began to appear from day 3 after treatment with RANKL, the cells were differentiated into giant multinuclear cells for 4 to 6 days (see FIG. 1), and dead by cell apoptosis after 6 days.
During RANKL treatment, each PMSA compound was also used for treatment, followed by culturing the cells for 3 or 5 days to confirm the effects of inhibiting osteoclast differentiation.
1×10^4 monocytes isolated from mouse bone marrow were put into a 96-well plate and treated with RANKL and PMSA together to confirm the effect of each PMSA on osteoclast differentiation ability. Each PMSA was used for treatment by concentration. The activity of tartrate-resistant acid phosphatase (TRAP), which has increased expression during osteoclast differentiation, was confirmed using a TRAP activity assay kit (Cosmo Bio, PMC-AK04F-COS) (see FIG. 2).
Further, after staining, the multinuclear cells formed during osteoclast differentiation were observed under a microscope, and each well was photographed and a differentiation area ratio per total area was determined using Image J software. […] Specifically, at 10 μM concentration, cells were differentiated into osteoclasts by 30% when using #25 (PMSA-3-Ac), similarly, 74% using #25-C (PMSA-Ph), 63% using #25-N (PMSA-PhN), 41% using #25-PhO (PMSA-O), and only 1% using #25-D12 (PMSA-2-OMe-5-Cl), respectively. […]

CYP2D6 = CYP2D6 (Homo sapiens, UniProt P10635); experiment: CYP450 drug metabolism inhibition, 2D6; format: in vitro ADME; settings: criterion remaining activity >50%
CYP2D6, sequence (P10635 whole entry): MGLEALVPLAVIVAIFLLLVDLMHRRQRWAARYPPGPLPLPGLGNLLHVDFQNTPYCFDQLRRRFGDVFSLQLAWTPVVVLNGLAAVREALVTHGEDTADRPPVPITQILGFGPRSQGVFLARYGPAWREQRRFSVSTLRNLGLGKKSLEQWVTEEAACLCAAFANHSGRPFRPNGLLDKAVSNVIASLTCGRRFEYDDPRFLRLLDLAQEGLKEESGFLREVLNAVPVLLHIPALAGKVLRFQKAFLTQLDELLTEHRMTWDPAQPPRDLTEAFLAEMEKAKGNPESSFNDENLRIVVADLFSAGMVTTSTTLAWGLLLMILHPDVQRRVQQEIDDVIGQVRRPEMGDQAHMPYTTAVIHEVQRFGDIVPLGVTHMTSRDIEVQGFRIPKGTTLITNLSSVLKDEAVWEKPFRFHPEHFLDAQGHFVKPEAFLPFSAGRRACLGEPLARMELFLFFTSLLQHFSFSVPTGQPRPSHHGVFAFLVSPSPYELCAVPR
Experimental: as §1

CYP2C9 = CYP2C9 (Homo sapiens, UniProt P11712); experiment: CYP450 drug metabolism inhibition, 2C9; format: in vitro ADME; settings: criterion remaining activity >50%
CYP2C9, sequence (P11712 whole entry): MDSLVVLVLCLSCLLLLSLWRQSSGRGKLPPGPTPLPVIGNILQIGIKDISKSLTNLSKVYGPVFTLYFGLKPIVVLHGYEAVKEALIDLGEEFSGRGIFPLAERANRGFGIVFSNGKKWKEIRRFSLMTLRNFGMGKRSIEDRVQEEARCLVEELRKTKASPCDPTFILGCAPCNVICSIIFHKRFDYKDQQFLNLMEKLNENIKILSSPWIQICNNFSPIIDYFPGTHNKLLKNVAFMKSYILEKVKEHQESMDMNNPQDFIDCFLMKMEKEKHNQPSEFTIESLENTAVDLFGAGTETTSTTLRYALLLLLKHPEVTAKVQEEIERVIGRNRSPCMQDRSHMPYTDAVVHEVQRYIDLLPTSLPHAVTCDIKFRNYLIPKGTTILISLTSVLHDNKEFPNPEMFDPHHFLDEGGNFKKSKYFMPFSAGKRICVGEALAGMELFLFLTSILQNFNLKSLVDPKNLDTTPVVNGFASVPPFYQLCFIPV
Experimental: as §1

CYP1A2 = target: T1, CYP1A2 (Homo sapiens, UniProt P05177); experiment: CYP450 drug metabolism inhibition, 1A2; format: in vitro ADME; settings: criterion remaining activity >50%
T1 sequence (P05177 1-516): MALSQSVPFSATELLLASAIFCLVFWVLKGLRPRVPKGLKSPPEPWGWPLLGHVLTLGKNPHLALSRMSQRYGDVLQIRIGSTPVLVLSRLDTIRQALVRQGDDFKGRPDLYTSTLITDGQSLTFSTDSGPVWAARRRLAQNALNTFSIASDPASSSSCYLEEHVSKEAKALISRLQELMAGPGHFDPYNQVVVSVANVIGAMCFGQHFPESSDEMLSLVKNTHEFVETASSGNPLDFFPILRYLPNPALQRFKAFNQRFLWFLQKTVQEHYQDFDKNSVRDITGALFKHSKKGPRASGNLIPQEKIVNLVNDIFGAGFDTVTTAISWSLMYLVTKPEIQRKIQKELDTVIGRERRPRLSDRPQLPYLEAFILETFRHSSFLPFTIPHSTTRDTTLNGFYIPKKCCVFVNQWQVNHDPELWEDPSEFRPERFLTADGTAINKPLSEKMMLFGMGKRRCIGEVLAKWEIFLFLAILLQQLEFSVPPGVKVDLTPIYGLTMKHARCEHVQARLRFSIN
Experimental: as §1

NFATc1 = experiment: Intranuclear migration of transcription factors, western blotting of nuclear and cytoplasmic proteins; format: cell-based, mouse; settings: osteoclasts differentiated by RANKL for 3 days
Excerpt: In order to further confirm the inhibitory effect of the PMSA compound on osteoclast differentiation, the intranuclear migration of transcription factors NFATc1 and NF-kB and the expression degree of osteoclast-specific genes regulated by the transcription factors were investigated.
First, in order to confirm the intranuclear migration of transcription factors, osteoclasts differentiated by RANKL for 3 days were separated into nuclear protein and cytoplasmic protein using a NE-PER kit (ThermoFisher scientific 78833). Then, the expression of each of NFATc1 and NF-kB in each organelle was investigated through western blotting.

[3] = ADME evaluation (DGMIF), overall conclusion on toxicity; format: in vitro ADME; settings: conclusion from ADME evaluation
Experimental: as §1

Microsomal stability (H) = format: in vitro ADME, human; settings: H of H/M; criterion >60%
Experimental: as §1

ovariectomized mouse = experiment: Ovariectomized (OVX) mouse osteoporosis model, tibia microcomputer tomography; format: in vivo
Experimental: In order to confirm in vivo efficacy of the PMSA compound, an ovariectomized animal model (OVX, ovariectomized mouse) with osteoporosis due to estrogen deficiency after ovariectomy in 8-week-old female mouse was prepared. #25 (PMSA-3-Ac, 25 mg/kg) or #25-D12 (PMSA-2-OMe-5-Cl, 20 mg/kg) were injected intraperitoneally once every two days to the ovariectomized mouse model. After 4 weeks, the tibia of the mouse was analyzed for bone density by microcomputer tomography.

[4] = compared to group in which osteoclasts are normally differentiated
[5] = 20 mg/kg intraperitoneally once every two days, 4 weeks, tibia, compared to control (OVX)

| Papp [1] | permeability resistance [1] | CYP 2D6 remaining activity (CYP2D6) | CYP 2C9 remaining activity (CYP2C9) | CYP 1A2 remaining activity (CYP1A2) | Microsomal stability (>60%) H (Microsomal stability (H)) | Structure (SMILES) | cells differentiated into osteoclasts (differentiation area ratio per total area) [2] | osteoclast differentiation inhibitory ability [2] | NFATc1 expression in the nucleus (NFATc1) | toxicity [3] | differentiation area [2, 4] | giant multinuclear cells [2, 4] | number of osteoclasts [2, 4] | bone density and bone volume (ovariectomized mouse; 20 mg/kg intraperitoneally once every two days, 4 weeks, compared to control (OVX)) | bone volume (BV) increase (ovariectomized mouse; [5]) | cortical volume (Ct.V) increase (ovariectomized mouse; [5]) | total bone volume (TV) increase (ovariectomized mouse; [5]) | trabecular bone mineral density (Th. BMD) increase (ovariectomized mouse; [5]) | trabecular volume (Th.V) increase (ovariectomized mouse; [5]) | bone loss (ovariectomized mouse; OVX mouse model) |
| --- | --- | --- | --- | --- | --- | --- | --- | --- | --- | --- | --- | --- | --- | --- | --- | --- | --- | --- | --- | --- |
| 59.4 ± 1.6 ×10⁻⁶ cm/s | excellent | 80.4% | 63.7% | 85.7% | 8.7% | CC(=O)c1cccc(N(CC(=O)Nc2ccccc2Sc2ccccc2)S(C)(=O)=O)c1 [#25, 2-(N-(3-acetylphenyl)methylsulfonamido)-N-(2-(phenylthio)phenyl)acetamide] | 30% | excellent | less expressed in the nucleus | low toxicity |  |  |  |  |  |  |  |  |  |  |
|  |  | 87.3% | 52.4% | 85.1% | 10.9% | Cc1cc(C)cc(N([C@@H](C)C(=O)Nc2ccccc2Sc2ccccc2)S(C)(=O)=O)c1 [#25-D5, N^2-(3,5-dimethylphenyl)-N^2-(methylsulfonyl)-N-[2-(phenylthio)phenyl]alanineamide] |  |  |  |  | significant reduction | significant reduction | significant reduction |  |  |  |  |  |  |  |
| 49 ± 2 ×10⁻⁶ cm/s | excellent | 85.5% | 59.8% | 77.9% | 13.9% | COc1ccc(Cl)cc1N(CC(=O)Nc1ccccc1Sc1ccccc1)S(C)(=O)=O [#25-D12, 2-(N-(5-chloro-2-methoxyphenyl)methylsulfonamido)-N-(2-(phenylthio)phenyl)acetamide] | 1% | excellent | less expressed in the nucleus | low toxicity |  |  |  | higher | 6.9% | 5.4% | 5.4% | 42.3% | 2.7 times | preventing bone loss in the trabecular bone portion; also recorded: effectively reduced bone loss |
